Series [1] can be described thus: Metabolic stability test in human liver. It counts as in vitro ADME. The conditions noted are these: liver microsomes, pH 7.4; human liver microsome 1 mg protein/mL, test compound 1 μM, 37° C. As for the experimental part:
Using human liver microsome (Xenotech, H0630), the in vitro metabolic half-life was calculated. A reaction solution (300 μL) was prepared to contain a test compound at 1 μM in 250 mM Na—K-phosphate buffer (pH 7.4) containing, at final concentrations, 2.4 mM MgCl2, 1.5 mM glucose-6-phosphate (G-6-P), 0.18 U/mL glucose-6-phosphate dehydrogenase (G-6-P DH), 69 mM KCl, 0.16 mM (3-nicotinamide-adenine dinucleotide phosphate, oxidized form (NADP) and 1 mg microsomal protein/mL. After pre-incubation at 37° C. for 5 minutes, the NADP solution was added to initiate the reaction. The incubation time was set to 0, 10, 20, 30, 45 or 60 minutes. The reaction was stopped by addition of a CH3CN:CH3OH (1:1) solution in the same volume as that of the reaction solution. The sample after the reaction was centrifuged at 3639×g at 4° C. for 10 minutes, and the resulting supernatant was analyzed by LC/MS. Using the time period during which linearity was observed, the metabolic half-life was calculated from the slope.
A general note: Liver microsomes are a subcellular fraction often used to study metabolism.

Series [2] has as its target T1, human recombinant δ receptor (Homo sapiens, UniProt P41143).
T1 construct: Cerep, Inc. (contract assay)
As to the kind of experiment: [3H]DADLE binding test. The conditions noted are these: [3H]DADLE 0.5 nM. As for the experimental part:
Affinity for δ receptor was evaluated in a [^3H]DADLE binding test by Cerep, Inc. The δ receptor preparation used was human recombinant δ receptor. The human recombinant δ receptor was incubated with [^3H]DADLE (0.5 nM) at 22° C. for 120 minutes.

Series [3] concerns the target T2, σ1 receptor (Homo sapiens, UniProt Q99720).
T2 construct: host or cells: Jurkat cells (membrane)
Nature of the series: [3H](+)pentazocine binding test. The conditions noted are these: [3H](+)pentazocine 8 nM, Jurkat cell membrane. As for the experimental part: Affinity for σ1 receptor was evaluated in a [^3H](+)pentazocine binding test by Cerep, Inc. The σ1 receptor preparation used was the membrane of Jurkat cells. The Jurkat cell membrane was incubated with [^3H](+)pentazocine (8 nM) at 22° C. for 120 minutes.

Series [4] has as its target T3, rat recombinant κ receptor (Rattus norvegicus, UniProt P34975).
T3 construct: Cerep, Inc. (contract assay)
As to the kind of experiment: [3H]U69593 binding test. The conditions noted are these: [3H]U69593 1 nM. As for the experimental part:
Affinity for κ receptor was evaluated in a [^3H]U69593 binding test by Cerep, Inc. The κ receptor preparation used was rat recombinant κ receptor. The rat recombinant κ receptor was incubated with [^3H]U69593 (1 nM) at 22° C. for 60 minutes.

Series [5] concerns the target human recombinant μ receptor (Homo sapiens, UniProt P35372). As to the kind of experiment: [3H]diprenorphine binding test. The conditions noted are these: read-out: % Inhibition (10 μM), μ receptor.
The test system of series [6] is Sprague-Dawley rats. As to the kind of experiment: Social recognition test. It counts as in vivo, rat. As for the experimental part:
This experiment was performed with Sprague-Dawley rats (male) according to the reported method (Shimazaki et al., European Journal of Pharmacology, 575, 94-97, 2007). Adult rats (9 weeks of age) were placed in a test cage and acclimated for 30 minutes. After 30 minutes, juvenile rats (4 weeks of age) were placed in the same test cage containing the adult rats, and allowed to stand for 5 minutes. During this 5 minutes, the time taken for the adult rats to show social behavior (sniffing, grooming, following) to the juvenile rats was measured (first exploratory time). Then, the rats were removed from the test cage and returned to their respective home cages. After 85 minutes, the adult rats were placed again in the test cage and acclimated for 30 minutes. The same juvenile rats as used in the first exploratory were placed in the test cage, followed by measuring the time taken for the adult rats to show social behavior (sniffing, grooming, following) to the juvenile rats during 5 minutes (second exploratory time). The social recognition was expressed as the ratio of second exploratory time/first exploratory time. A test substance (the compound of Example 70) was orally administered to the adult rats immediately after their first social behavior.

Series [7] can be described thus: Distribution test in rats. It counts as in vivo, rat. The conditions noted are these: SD rats, single oral dose 3 mg/kg (2.75 mg/kg as a free form); plasma and organs at 1, 2, 4, 8 and 24 hours. As to the method: SD rats were used and orally administered once with the compound of Example 70 at a dose of 3 mg/kg (2.75 mg/kg as a free form) to confirm the tissue distribution of the compound in plasma, brain, liver, kidney, spleen, lung, heart, muscle, fat, testis, bone marrow and adrenal gland at 1, 2, 4, 8 and 24 hours after administration. For quantification, high performance liquid chromatography/tandem mass spectrometry (LC-MS/MS) was used.

Series [8] relates to CHL/IU cells. Nature of the series: Cytotoxicity test. It counts as cell-based, Chinese hamster. The conditions noted are these: 48 hours culture, Cell counting kit-8. As to the method: Chinese hamster lung fibroblast-derived CHL/IU cells (DS Pharma Biomedical Co., Ltd., Japan) were seeded, and the medium was replaced on the following day by another medium (MEM+2 mM L-Glutamine+10% CS (all purchased from Invitrogen)) containing a test compound at various concentrations, followed by culture for an additional 48 hours. Using a Cell counting kit-8 (Dojindo Laboratories, Japan), the survival rate of the cells was determined to obtain a curve whose horizontal axis represents the test compound concentration and whose vertical axis represents the survival rate. The curve thus obtained was used to determine the concentration of the test compound at which the survival rate was 50%. As a result, this concentration was 275, 441 and >640 mmol/L for the compounds of Examples 56, 62 and 70, respectively.
In general terms: Tetrazolium assays rely on reduction of a dye to a coloured formazan, in cell work by metabolically active cells.

The record followed here is US8183387B2, “Phenylpyrazole derivatives” (Taisho Pharmaceutical Co., Ltd, priority 2007, dated 2012).

T1 sequence (P41143 whole entry): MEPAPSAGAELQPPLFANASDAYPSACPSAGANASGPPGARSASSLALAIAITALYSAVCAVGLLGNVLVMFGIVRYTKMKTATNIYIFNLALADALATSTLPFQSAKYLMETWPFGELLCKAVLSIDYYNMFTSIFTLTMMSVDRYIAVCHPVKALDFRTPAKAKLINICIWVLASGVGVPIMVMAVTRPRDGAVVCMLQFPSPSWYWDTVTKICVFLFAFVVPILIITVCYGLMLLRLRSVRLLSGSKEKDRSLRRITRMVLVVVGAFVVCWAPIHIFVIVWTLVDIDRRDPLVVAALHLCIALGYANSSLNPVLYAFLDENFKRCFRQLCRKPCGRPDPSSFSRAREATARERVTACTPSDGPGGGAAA
T3 sequence (P34975 whole entry): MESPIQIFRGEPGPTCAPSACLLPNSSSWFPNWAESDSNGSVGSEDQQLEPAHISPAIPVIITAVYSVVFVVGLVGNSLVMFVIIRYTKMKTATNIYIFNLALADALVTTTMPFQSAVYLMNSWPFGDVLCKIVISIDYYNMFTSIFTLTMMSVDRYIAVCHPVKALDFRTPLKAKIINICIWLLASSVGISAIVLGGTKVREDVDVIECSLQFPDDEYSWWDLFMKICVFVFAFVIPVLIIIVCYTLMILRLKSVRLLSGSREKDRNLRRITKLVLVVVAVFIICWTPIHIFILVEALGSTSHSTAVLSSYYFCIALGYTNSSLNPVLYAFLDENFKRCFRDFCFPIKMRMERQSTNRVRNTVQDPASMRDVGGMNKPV
T2 sequence (Q99720 whole entry): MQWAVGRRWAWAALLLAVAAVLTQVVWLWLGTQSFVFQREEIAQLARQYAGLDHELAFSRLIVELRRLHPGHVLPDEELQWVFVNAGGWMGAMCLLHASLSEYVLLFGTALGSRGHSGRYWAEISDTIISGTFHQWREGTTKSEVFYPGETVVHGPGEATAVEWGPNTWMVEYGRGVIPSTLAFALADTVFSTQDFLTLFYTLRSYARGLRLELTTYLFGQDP
Chain of human recombinant μ receptor (P35372 whole entry): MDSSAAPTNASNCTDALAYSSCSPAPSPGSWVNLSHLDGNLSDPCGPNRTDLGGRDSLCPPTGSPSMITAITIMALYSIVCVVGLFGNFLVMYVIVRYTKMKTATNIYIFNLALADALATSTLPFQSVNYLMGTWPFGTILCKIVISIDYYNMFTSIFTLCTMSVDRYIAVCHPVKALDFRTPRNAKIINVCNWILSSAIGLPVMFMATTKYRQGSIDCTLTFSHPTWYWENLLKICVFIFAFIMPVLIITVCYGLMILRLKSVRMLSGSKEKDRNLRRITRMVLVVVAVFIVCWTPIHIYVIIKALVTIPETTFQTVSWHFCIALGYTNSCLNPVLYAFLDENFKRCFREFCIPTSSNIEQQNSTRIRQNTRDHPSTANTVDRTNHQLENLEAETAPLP

As to `C[C@@H]1CCCN1CCCOc1ccc(-n2cc(C(=O)N3CCOCC3)cn2)cc1` [Example 6, 4-{[1-(4-{3-[(2R)-2-methylpyrrolidin-1-yl]propoxy}phenyl)-1H-pyrazol-4-yl]carbonyl}morpholine], the half-life – broadly, how long it takes for the measured level to halve – at 1 μM in series [1] is not below 3 h.

Take `C[C@@H]1CCCN1CCCOc1ccc(-n2cc(C(=O)N3CCOCC3)cn2)cc1.Cl` [Example 70, 4-{[1-(4-{3-[(2R)-2-methylpyrrolidin-1-yl]propoxy}phenyl)-1H-pyrazol-4-yl]carbonyl}morpholine monohydrochloride]: the inhibition – broadly, the change of the read-out against control, counted positive when it falls – at 10 µM in series [2] is -1%; in series [3], 28%; in series [4] it was 17%; in series [5], 3%. The “effect on cognitive functions” value in series [6] (10 mg/kg oral, rats, compared to vehicle group) is listed as “had an enhancing effect on cognitive functions”. For the same molecule, the “Ratio (second exploratory time/first exploratory time)” value in series [6] (10 mg/kg orally to adult rats immediately after first social behavior, n = 18, p<0.01 vs vehicle) is on record as 0.66 ± 0.06^p<0.01. Also, in series [7], the “tissue distribution of unchanged form and major metabolites” value was “rapidly disappear from each organ”. Moreover, the “concentration of the test compound at which the survival rate was 50%” value in series [8] was more than 640000 µM.
